Values of other authors, collected in paper PMC7211195 (Investigational New Drugs, 2019).
Like-named read-outs stand apart in the source and are kept apart here.

Columns and labels:
[1] = in rats, cited from earlier work
[2] = cited from earlier work
[3] = design: method as in PMID 19276246; details: cited from earlier work; for increase in concentration in the brain: abcb1a/1b;abcg2(−/−) mice
[4] = design: method as in PMID 24113148; details: cited from earlier work

Structure (SMILES): COc1cc2c(cc1OC)CN(CCc1ccc(NC(=O)c3cccc4c(=O)c5cccc(OC)c5[nH]c34)cc1)CC2 [Elacridar, 9,10-dihydro-5-methoxy-9-oxo-N-[4-[2-(1,2,3,4-tetrahydro-6,7-dimethoxy-2-isoquinolinyl)ethyl]phenyl]-4-acridine-carboxamide]
- bound to plasma proteins ([1]; ref 16): 98.1 ± 1.7%
- bound to plasma proteins ([1]; ref 30): 99.0 ± 0.6%

Structure (SMILES): C[C@@H](Oc1cc(-c2cnn(C3CCNCC3)c2)cnc1N)c1c(Cl)ccc(F)c1Cl [crizotinib]
- brain accumulation after 24 h, times greater ([2]; 5 mg/kg b.w., knockout vs WT mice): approximately 40 times
- higher BP exposure than WT mice ([2]; abcb1a/1b(−/−) and abcb1a/1b;abcg2(−/−) mice, 5 mg/kg b.w.): approximately 2 times
- brain accumulation, times greater than in WT mice ([2]; abcb1a/1b(−/−) mice, dose increased ten-fold): approximately 70 times

Structure (SMILES): Cc1nc(Nc2ncc(C(=O)Nc3c(C)cccc3Cl)s2)cc(N2CCN(CCO)CC2)n1 [dasatinib]
- brain-to-plasma ratio increase with elacridar ([3]; WT mice): 4.4 times
- increase in concentration in the brain ([3]; intraperitoneal administration): 22.7 times
- increase in concentration in the brain ([3]; oral administration): 13.2 times

Structure (SMILES): CCN(CC)CCNC(=O)c1c(C)[nH]c(/C=C2\C(=O)Nc3ccc(F)cc32)c1C [sunitinib]
- DTIBT ([4]; bcrp1(−/−) mice): 2.1
- DTIBT ([4]; mdr1a/b(−/−) mice): 3.9
- DTIBT ([4]; mice with both knockout genes): 48.9
